Laboratory results: article PMC8645336, “Benchmarking a highly selective USP30 inhibitor for enhancement of mitophagy and pexophagy” (Life Science Alliance, 2021)

Key:
Test in all cases: biochemical
Parameters in all cases: Ubiquigent DUB profiler selectivity panel, remaining enzyme activity as % of control
Settings in all cases: read-out: % of control remaining
USP17 = target: T1, USP17 (Homo sapiens, UniProt Q6R6M4)
T1 construct: gene USP17L2
T1 sequence (Q6R6M4 1-530): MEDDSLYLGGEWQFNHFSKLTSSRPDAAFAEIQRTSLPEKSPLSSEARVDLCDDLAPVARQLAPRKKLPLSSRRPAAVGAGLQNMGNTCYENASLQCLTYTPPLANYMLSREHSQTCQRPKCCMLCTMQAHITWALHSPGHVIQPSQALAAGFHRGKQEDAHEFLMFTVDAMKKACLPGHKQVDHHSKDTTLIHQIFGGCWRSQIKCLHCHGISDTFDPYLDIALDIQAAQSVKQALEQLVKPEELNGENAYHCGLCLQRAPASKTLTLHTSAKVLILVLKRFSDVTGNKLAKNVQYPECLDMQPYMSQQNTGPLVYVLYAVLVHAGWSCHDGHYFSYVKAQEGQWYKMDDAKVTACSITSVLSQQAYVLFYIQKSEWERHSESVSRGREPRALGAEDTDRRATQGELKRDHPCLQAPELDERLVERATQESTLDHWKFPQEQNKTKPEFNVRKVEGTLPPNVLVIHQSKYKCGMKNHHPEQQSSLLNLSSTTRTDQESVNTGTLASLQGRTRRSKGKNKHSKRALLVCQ
Protocol: (§1) Previous work has reported IC50 values for a series of benzosulphonamide inhibitors, of which all those <1 μM were screened for selectivity, in comparison to three other USP family members ([20], [21]). We have selected one of these compounds (CMPD-39, Fig 1A) for a more rigorous test of selectivity provided by the Ubiquigent DUB profiler screening platform comprising >40 DUBs. […] To test engagement of the inhibitor with USP30 applied to intact cells, we assayed competition with Ub-PA (Ub-propargylamide). Ub-PA covalently binds to the USP30 active site leading to a characteristic upshift on a SDS–PAGE gel ([22]). If a drug blocks access to the catalytic site, then the probe modification is blocked and the apparent molecular weight of USP30 shifts down accordingly. […] A robust proxy read-out for target engagement is the enhancement of TOMM20 ubiquitylation after mitochondrial depolarization ([6], [16]). This second assay indicates a maximal effect with 200 nM CMPD-39 applied to RPE1-YFP-PRKN cells (Fig 1D).  Figure 1. CMPD-39 is a selective USP30 inhibitor. (A) Chemical structure of CMPD-39. (B) DUB specificity screen (DUB profiler, Ubiquigent) with 1-100 μM CMPD-39. […] Samples were incubated with CMPD-39 for 2 h at the indicated concentrations, then incubated with HA-Ub-PA probe for 10 min at 37°C and immunoblotted as shown. Red arrow indicates unbound USP30; blue arrow represents probe bound USP30. (D) Inhibition of USP30 enhances the ubiquitylation of TOMM20 in YFP-PRKN over-expressing hTERT-RPE1 cells in a concentration dependent manner in response to mitophagy induction. Cells were treated for 1 h with DMSO or antimycin A and oligomycin A (AO; 1 μM each) in the absence or presence of CMPD-39 at the indicated concentrations, lysed, and analyzed by Western blotting. Black arrow indicates unmodified TOMM20, ubiquitylated species are indicated by red (mono-ubiquitylated) or blue arrow heads. […] Source data are available for this figure.

USP12/UAF1/WDR20 = USP12/UAF1/WDR20 (Homo sapiens, UniProt O75317)
Protocol: as §1

USP36 = target: T2, USP36 (Homo sapiens, UniProt Q9P275)
T2 sequence (Q9P275 1-1123): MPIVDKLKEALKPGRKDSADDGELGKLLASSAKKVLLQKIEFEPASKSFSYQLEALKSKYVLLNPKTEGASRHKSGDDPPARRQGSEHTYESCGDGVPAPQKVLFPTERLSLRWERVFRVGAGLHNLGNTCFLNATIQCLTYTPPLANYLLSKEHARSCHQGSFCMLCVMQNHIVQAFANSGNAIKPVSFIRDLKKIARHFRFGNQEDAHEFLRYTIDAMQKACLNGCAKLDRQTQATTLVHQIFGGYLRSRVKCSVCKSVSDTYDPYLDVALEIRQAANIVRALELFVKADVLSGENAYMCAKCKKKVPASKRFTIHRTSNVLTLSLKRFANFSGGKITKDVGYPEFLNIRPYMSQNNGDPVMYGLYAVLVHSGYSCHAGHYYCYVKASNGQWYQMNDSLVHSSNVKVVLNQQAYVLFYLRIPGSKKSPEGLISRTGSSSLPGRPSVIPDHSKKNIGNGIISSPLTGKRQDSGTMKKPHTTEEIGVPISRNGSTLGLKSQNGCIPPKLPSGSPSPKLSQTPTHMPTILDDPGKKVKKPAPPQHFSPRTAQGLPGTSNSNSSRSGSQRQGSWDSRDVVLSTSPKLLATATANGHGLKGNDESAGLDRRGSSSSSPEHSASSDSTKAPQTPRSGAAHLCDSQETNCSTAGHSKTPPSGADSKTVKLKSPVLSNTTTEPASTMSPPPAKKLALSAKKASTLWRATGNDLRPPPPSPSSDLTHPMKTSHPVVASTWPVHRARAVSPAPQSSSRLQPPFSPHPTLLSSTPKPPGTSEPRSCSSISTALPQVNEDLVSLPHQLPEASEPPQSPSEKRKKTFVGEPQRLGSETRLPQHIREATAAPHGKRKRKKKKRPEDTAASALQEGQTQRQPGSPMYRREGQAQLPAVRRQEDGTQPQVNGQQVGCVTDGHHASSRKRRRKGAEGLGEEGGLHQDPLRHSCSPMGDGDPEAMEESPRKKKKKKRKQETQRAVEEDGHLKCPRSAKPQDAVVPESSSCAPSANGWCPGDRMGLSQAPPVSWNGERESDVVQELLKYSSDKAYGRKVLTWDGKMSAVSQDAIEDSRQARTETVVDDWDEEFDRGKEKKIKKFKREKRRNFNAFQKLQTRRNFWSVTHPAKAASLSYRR
Protocol: as §1

USP16 = USP16 (Homo sapiens, UniProt Q9Y5T5)
Protocol: as §1

Sequence of USP16 (Q9Y5T5 whole entry): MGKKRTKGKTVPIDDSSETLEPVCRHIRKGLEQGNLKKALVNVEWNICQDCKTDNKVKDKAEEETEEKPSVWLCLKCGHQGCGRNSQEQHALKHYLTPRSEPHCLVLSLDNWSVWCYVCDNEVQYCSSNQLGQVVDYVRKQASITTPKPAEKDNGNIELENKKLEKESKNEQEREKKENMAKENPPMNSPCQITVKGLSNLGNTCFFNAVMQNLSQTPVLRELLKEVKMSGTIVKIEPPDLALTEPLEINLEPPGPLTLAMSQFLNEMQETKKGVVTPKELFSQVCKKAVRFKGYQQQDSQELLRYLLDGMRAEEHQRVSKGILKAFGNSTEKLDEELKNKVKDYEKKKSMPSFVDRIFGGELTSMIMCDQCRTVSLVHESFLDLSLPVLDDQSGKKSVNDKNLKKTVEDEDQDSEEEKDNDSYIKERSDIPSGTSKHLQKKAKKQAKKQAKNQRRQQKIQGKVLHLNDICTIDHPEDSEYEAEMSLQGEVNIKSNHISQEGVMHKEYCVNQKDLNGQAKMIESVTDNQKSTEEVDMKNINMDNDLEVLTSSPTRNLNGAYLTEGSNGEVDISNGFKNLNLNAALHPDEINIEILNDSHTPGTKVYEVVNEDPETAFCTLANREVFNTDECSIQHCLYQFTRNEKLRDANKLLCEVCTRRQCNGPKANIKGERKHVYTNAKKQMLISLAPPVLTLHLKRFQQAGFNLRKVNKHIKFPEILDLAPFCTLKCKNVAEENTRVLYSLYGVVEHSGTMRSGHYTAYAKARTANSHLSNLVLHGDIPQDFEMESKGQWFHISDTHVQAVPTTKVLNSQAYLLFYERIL
Sequence of USP12/UAF1/WDR20 (O75317 whole entry): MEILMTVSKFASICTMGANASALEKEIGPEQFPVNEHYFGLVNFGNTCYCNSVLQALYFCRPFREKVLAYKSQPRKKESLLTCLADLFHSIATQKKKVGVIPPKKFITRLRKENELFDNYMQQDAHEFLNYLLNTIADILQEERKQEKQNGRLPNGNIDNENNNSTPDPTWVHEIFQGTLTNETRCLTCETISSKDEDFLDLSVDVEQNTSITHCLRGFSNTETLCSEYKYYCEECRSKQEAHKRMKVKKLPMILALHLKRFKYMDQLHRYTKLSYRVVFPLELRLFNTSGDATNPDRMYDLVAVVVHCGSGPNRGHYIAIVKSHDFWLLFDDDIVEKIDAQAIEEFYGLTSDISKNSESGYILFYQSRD
Sequence of USP12/UAF1/WDR20 (Q8TAF3 whole entry partner): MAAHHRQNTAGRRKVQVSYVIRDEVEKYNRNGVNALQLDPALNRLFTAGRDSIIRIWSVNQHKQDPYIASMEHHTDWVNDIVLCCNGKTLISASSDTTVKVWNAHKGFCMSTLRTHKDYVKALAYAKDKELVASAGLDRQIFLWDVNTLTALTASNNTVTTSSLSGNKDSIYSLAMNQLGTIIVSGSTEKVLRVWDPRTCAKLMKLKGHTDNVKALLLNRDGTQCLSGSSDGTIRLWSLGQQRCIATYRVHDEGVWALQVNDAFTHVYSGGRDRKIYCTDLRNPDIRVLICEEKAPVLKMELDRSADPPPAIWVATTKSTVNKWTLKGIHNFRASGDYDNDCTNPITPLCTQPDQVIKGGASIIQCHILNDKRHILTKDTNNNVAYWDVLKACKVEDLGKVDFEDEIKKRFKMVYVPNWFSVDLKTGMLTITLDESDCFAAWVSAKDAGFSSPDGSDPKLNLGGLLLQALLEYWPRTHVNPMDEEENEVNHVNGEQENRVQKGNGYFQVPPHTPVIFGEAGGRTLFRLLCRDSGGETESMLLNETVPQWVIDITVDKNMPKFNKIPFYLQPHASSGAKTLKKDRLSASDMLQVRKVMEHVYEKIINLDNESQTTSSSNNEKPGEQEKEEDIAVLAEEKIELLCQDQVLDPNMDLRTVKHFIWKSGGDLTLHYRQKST
Sequence of USP12/UAF1/WDR20 (Q8TBZ3 whole entry partner): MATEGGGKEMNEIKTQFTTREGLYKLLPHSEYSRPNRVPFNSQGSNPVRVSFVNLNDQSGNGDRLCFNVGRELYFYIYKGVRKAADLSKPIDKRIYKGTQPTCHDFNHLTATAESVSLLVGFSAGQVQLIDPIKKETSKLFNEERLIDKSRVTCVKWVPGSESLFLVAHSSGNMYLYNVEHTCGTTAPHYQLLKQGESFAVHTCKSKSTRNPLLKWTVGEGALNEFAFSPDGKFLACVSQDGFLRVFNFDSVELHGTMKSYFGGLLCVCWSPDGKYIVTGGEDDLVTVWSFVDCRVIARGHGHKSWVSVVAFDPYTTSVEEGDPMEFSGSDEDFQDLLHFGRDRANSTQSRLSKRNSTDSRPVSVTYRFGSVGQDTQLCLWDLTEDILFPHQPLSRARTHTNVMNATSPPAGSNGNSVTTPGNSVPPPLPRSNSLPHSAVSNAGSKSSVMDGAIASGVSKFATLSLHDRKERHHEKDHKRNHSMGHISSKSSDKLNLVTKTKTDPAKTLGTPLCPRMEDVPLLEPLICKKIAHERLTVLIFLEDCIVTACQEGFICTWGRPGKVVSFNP

CC(C)(C)NS(=O)(=O)c1ccc(NC(=O)[C@H](Cc2ccccc2)NC(=O)c2ccc(F)cc2)cc1 [compound 39, CMPD-39]
remaining activity at 1 µM (USP17): 110% | remaining activity at 10 µM (USP17): 119% | remaining activity at 100 µM (USP17): 102% | remaining activity at 1 µM (USP12/UAF1/WDR20): 114% | remaining activity at 10 µM (USP12/UAF1/WDR20): 106% | remaining activity at 100 µM (USP12/UAF1/WDR20): 104% | remaining activity at 1 µM (USP36): 110% | remaining activity at 10 µM (USP36): 98.8% | remaining activity at 100 µM (USP36): 94.8% | remaining activity at 1 µM (USP16): 111% | remaining activity at 10 µM (USP16): 100% | remaining activity at 100 µM (USP16): 104%
